Read-outs that look alike come from different tables or passages of the source.
Key:
[1] = Human liver microsomal stability; assay type: in vitro ADME; details: human liver microsomes
Procedure: Stability of compound (5 μL of a 10 mM DMSO solution) in human liver microsomes was tested in duplicate by incubating compound at 1 μM for 60 minutes at 37° C. Compound level at 60 minutes was compared to level at 0 minutes, and percent remaining was calculated. Order by selecting Microsomal Stability in Prometheus, checking boxes for desired species. Assay Controls: microsomes with NADPH without compound-matrix interference. Microsomes plus compound without NADPH—non-enzymatic instability.

[2] = molecular target: T1, GSK3a (GST-full length GSK3a) (Homo sapiens, UniProt P49840); assay: GSK3a TR-FRET kinase inhibition assay; assay type: biochemical
T1 construct: GST-full length GSK3a [SignalChem G08-10G]; purchased SignalChem G08-10G
Summary of the method: (§1)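 IC50 derived from normalized 665/615 TR-FRET signal (Tb anti-pSer641 antibody, streptavidin-d2), read after EDTA stop. Reaction: 1 nM GST-full-length enzyme, 30 min compound pre-incubation, 100 min at ambient temperature in Tris pH 7.5 with 1% DMSO, 200 nM biotinylated primed glycogen synthase peptide, ATP 2 μM to 1 mM.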

[3] = system: MDR1-MDCK cell monolayers; assay: MDR1/MDCK permeability assay; assay type: in vitro ADME; details: for MDCK Permeability (MDR1-MDCK); Mean; Papp(A-B) (10^−6 cm/s): A to B; for MDCK Permeability (MDR1-MDCK); Mean; Papp(B-A) (10^−6 cm/s): B to A; for MDCK Permeability (MDR1-MDCK); Mean; P. Ratio(B-A/A-B) Efflux Ratio / MIDCK Permeability (MDR1-MDCK); Mean; P. Ratio(B-A/A-B) Efflux Ratio: Papp B-A/A-B
From the text: The MDR1/MDCK assay is run at WuXi and Absorption Systems. This assay is used to determine the blood-brain barrier (BBB) penetration potential of a test compound using MDR1-MDCK cell monolayers. Catalog number EA203.
• The percent recovery of the test compound from the Transwell® wells containing MDR1-MDCK cell monolayers • The apparent permeability (Papp) in both directions • The efflux ratio (Papp B to A)/(Papp A to B) • The blood-brain barrier penetration potential classification: • High when • Papp A to B≥3.0×10^−6 cm/s, and efflux<3.0 • Moderate when • Papp A to B≥3.0×10^−6 cm/s, and 10>efflux≥3.0 • Low when either • Papp A to B≥3.0×10^−6 cm/s, and […], or when • Papp A to B<[…].
• Test compound at 5 μM in HBSSg with maximum DMSO concentration not greater than 1%.
• Confluent monolayers of MDR1-MDCK cells, 7 to 11 days old.
• Receiver well with 1% BSA in modified Hanks buffer (HBSSg) • Apical and basolateral side at pH 7.4 • Dose two monolayers in each direction (N=2) • Dose apical side for (A to B) assessment • Dose basolateral side for (B to A) assessment • Sample both apical and basolateral sides at 120 minutes • Determine the concentrations of test compound using a generic LC-MS/MS method with a minimum 4 point calibration curve.
• The quality of the cell monolayer batch is verified using control compounds before monolayers are released for use • The quality of each monolayer used in the assay is verified by a TEER measurement and by calculating the Papp for a control compound.

[4] = molecular target: T2, GSK3b (GST-full length GSK3b) (Homo sapiens, UniProt P49841); assay: GSK3b TR-FRET kinase inhibition assay; assay type: biochemical
T2 construct: GST-full length GSK3b: [SignalChem G08-9G]; purchased SignalChem G08-9G
Summary of the method: as §1

[5] = 4 μM ATP, read-out: GSK3α TR-FRET 4 μM ATP GMean IC50
[6] = 2 μM ATP, read-out: GSK3β TR-FRET 2 μM ATP GMean IC50
[7] = 1 mM ATP, Table 4, read-out: GSK3α TR-FRET 1 mM ATP GMean IC50
[8] = 1 mM ATP, Table 4, read-out: GSK3β TR-FRET 1 mM ATP GMean IC50

T2 sequence (P49841 whole entry): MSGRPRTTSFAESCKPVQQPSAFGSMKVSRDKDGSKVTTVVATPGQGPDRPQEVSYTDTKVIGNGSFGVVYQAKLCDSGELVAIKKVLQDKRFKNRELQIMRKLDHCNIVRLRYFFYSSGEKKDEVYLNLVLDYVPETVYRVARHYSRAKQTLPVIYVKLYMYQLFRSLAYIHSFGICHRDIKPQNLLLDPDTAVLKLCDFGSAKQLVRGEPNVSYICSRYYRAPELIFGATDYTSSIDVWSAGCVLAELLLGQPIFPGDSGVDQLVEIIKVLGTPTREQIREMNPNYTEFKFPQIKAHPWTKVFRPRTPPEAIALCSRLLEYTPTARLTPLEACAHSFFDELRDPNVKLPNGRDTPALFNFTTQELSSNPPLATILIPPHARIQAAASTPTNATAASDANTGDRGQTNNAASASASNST
T1 sequence (P49840 whole entry): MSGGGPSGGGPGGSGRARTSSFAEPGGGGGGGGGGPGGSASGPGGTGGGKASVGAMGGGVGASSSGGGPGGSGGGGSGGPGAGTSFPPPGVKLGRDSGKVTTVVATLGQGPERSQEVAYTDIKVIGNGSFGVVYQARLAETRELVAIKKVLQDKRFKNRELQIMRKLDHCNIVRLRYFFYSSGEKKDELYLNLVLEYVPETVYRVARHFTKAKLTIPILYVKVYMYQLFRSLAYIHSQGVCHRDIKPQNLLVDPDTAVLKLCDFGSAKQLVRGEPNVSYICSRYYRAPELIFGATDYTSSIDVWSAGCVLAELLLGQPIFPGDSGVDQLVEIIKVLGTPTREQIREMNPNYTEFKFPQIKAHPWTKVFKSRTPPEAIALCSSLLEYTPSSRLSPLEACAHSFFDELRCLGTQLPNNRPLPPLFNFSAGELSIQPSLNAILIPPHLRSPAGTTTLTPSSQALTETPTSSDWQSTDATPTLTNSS

Row | Structure (SMILES) | Microsome Stability (Human) (DMPK_BIIB); Mean; in vitro t1/2 ([1]; Table 4) [min] | IC50 [2, 5] [nM] | MDCK Permeability (MDR1-MDCK); Mean; Papp(A-B) (10^−6 cm/s) ([3]; Table 4) | MDCK Permeability (MDR1-MDCK); Mean; Papp(B-A) (10^−6 cm/s) ([3]; Table 4) | MDCK Permeability (MDR1-MDCK); Mean; P. Ratio(B-A/A-B) Efflux Ratio ([3]; Table 4) | IC50 [4, 6] [nM] | Microsome Stability (Human) (DMPK_BIIB); Mean; in vitro t1/2 ([1]; Table 3) [min] | IC50 ([2]; 10 μM ATP, read-out: GSK3a 10 μM ATP Average IC50) [nM] | IC50 ([2]; 100 μM ATP, read-out: GSK3a 100 μM ATP Average IC50) [nM] | IC50 ([2]; 1 mM ATP, Table 3, read-out: GSK3a TR-FRET 1 mM ATP Average IC50) [nM] | MDCK Permeability (MDR1-MDCK); Mean; Papp(A-B) (10^−6 cm/s) ([3]; Table 3) | MDCK Permeability (MDR1-MDCK); Mean; Papp(B-A) (10^−6 cm/s) ([3]; Table 3) | MIDCK Permeability (MDR1-MDCK); Mean; P. Ratio(B-A/A-B) Efflux Ratio ([3]; Table 3) | IC50 ([4]; 10 μM ATP, read-out: GSK3b 10 μM ATP Average IC50) [nM] | IC50 ([4]; 100 μM ATP, read-out: GSK3b 100 μM ATP Average IC50) [nM] | IC50 ([4]; 1 mM ATP, Table 3, read-out: GSK3b TR-FRET 1 mM ATP Average IC50) [nM] | IC50 [2, 7] [nM] | IC50 [4, 8] [nM]
1 | CCC1(c2cccc(-c3cc(C)ncc3C)c2)C2=C(CC(C)(C)CC2=O)Nc2ncccc21 (single isomer, unassigned) [Compound 1027B] | 3.1 | ≤ 100 | 5.1 10^−6 cm/s | 30 10^−6 cm/s | 5.8 | 100 to 1000 | – | – | – | – | – | – | – | – | – | – | – | –
2 | CCC1(c2cccc(-c3c(C)nn(C)c3C)c2)C2=C(CC(C)(C)CC2=O)Nc2ncccc21 (single isomer, unassigned) [Compound 150A] | – | 1000 to 5000 | – | – | – | > 5000 | 1.9 | ≤ 100 | ≤ 100 | 100 to 1000 | 20 10^−6 cm/s | 17 10^−6 cm/s | 0.93 | ≤ 100 | ≤ 100 | 100 to 1000 | – | –
3 | CCC1(c2ccccc2)C2=C(CC(C)(C)CC2=O)Nc2ncccc21 (single isomer, unassigned) [102 A] | 9.1 | ≤ 100 | 8.7 10^−6 cm/s | 26 10^−6 cm/s | 2.9 | ≤ 100 | – | – | – | – | – | – | – | – | – | – | 1000 to 5000 | 5000 to 20000
4 | CCC1(c2cccc(-c3ccncc3C)c2)C2=C(CC(C)(C)CC2=O)Nc2ncccc21 (single isomer, unassigned) [Compound 1020B] | 6.4 | ≤ 100 | 14 10^−6 cm/s | 24 10^−6 cm/s | 1.8 | ≤ 100 | – | – | – | – | – | – | – | – | – | – | 100 to 1000 | 1000 to 5000
5 | CCC1(c2cccc(-c3ccnc4c3CCC4)c2)C2=C(CC(C)(C)CC2=O)Nc2ncccc21 (single isomer, unassigned) [Compound 1034B] | 4.1 | ≤ 100 | 7.6 10^−6 cm/s | 25 10^−6 cm/s | 3.3 | ≤ 100 | – | – | – | – | – | – | – | – | – | – | – | –
6 | CCC1(c2cccc(-c3cncn3C(C)C)c2)C2=C(CC(C)(C)CC2=O)Nc2ncc(F)cc21 (single isomer, unassigned) [Compound 1038A] | 16 | ≤ 100 | 0.90 10^−6 cm/s | 41 10^−6 cm/s | 43 | ≤ 100 | – | – | – | – | – | – | – | – | – | – | – | –
7 | CCC1(c2cccc(-c3c(F)cncc3OC)c2)C2=C(CC(C)(C)CC2=O)Nc2ncc(F)cc21 (single isomer, unassigned) [Compound 161A] | – | 100 to 1000 | – | – | – | 1000 to 5000 | 10 | – | – | – | 12 10^−6 cm/s | 6.9 10^−6 cm/s | 0.59 | – | – | – | – | –
